Like-named read-outs stand apart in the source and are kept apart here.
Legend:
M1 muscarinic receptor = molecular target: T1, M1 muscarinic receptor (Homo sapiens, UniProt P11229); assay: Functional mobilization of intracellular calcium (FLIPR, Fluo-3), M1-CHO cells; type: cell-based; settings: for M1 Activity: M1-CHO cells, calcium mobilization; for Emax: read-out: M1 Efficacy
T1 construct: expressed in transfected cells; host or cells: CHO cells (M1-CHO, under zeocin and G418 selection)
T1 sequence (P11229 1-460): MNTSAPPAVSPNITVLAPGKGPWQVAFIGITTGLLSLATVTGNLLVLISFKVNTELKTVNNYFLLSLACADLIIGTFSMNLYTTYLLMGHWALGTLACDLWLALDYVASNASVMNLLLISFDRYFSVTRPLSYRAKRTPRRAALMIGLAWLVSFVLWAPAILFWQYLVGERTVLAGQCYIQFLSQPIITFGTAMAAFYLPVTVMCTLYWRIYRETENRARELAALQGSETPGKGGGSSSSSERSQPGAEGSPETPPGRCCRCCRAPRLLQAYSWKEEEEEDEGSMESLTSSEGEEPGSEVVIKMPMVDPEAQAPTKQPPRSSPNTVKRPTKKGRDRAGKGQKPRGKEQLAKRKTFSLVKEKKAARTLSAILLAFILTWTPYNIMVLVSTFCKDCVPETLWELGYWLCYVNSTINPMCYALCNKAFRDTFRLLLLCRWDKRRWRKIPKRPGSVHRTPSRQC
In short: (§1)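 Fluo-3 read-out, ex 488/em 540 nm, 60 sec on FLIPR 3. For agonist mode, compound added directly; for inhibition, 15 min compound pre-incubation before carbachol at EC80 (added as a 3× solution), or co-application. Buffer pH 7.4 with 1 mM probenecid; DMSO 0.5%.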

M4 muscarinic receptor = molecular target: T2, M4 muscarinic receptor (Homo sapiens, UniProt P08173); assay: Functional mobilization of intracellular calcium (FLIPR, Fluo-3), M4-CHO cells; type: cell-based; settings: for M4 Activity: M4-CHO cells, calcium mobilization; for Emax: read-out: M4 Efficacy
T2 construct: expressed in transfected cells; host or cells: CHO cells (M4-CHO, under puromycin, zeocin and blasticidin selection)
T2 sequence (P08173 1-479): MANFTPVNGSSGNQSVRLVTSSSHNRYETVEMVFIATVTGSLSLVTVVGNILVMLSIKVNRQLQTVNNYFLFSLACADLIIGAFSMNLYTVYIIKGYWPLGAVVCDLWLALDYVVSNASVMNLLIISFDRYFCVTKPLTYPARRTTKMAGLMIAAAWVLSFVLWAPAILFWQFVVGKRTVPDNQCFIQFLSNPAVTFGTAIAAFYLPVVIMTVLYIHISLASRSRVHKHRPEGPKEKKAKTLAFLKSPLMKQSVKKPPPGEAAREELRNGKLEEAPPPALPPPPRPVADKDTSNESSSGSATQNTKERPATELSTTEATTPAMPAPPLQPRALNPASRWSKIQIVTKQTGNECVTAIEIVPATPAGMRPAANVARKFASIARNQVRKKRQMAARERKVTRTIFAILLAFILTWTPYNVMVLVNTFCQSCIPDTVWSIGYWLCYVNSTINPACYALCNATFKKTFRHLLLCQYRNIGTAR
In short: as §1

[1] = compound nos. 1-454, 100% efficacy is the maximum response obtained with the Carbachol control

SMILES | M1 Activity (M1 muscarinic receptor; compound nos. 1-454) | Emax (M1 muscarinic receptor) [%] | M4 Activity (M4 muscarinic receptor; compound nos. 1-454) | Emax (M4 muscarinic receptor) [%] | Emax (M1 muscarinic receptor; [1]) [%] | Emax (M4 muscarinic receptor; [1]) [%]
COc1ccc(OC(=O)N2C3CCC2CC(N2CCC4(CC2)COc2ccc(F)cc24)C3)cc1 (stereo not shown) [compound 100] | +++ (activity was measured to be less than or equal to 0.7 μM) | 65 to 85 | ++ (activity was measured to be between 0.1 μM and 4.0 μM) | 55 to 70 | – | –
CC#CCOC(=O)N1CCC(N2CCC3(CC2)CN(C(C)=O)c2ccc(F)cc23)CC1 [compound 102] | +++ (activity was measured to be less than or equal to 0.7 μM) | – | ++ (activity was measured to be between 0.1 μM and 4.0 μM) | – | 65 to 85 | 55 to 70
CCOC(=O)N1C2CCC1CC(N1CCC3(CC1)CN(S(C)(=O)=O)c1ccc(F)cc13)C2 (stereo not shown) [compound 103] | +++ (activity was measured to be less than or equal to 0.7 μM) | – | ++ (activity was measured to be between 0.1 μM and 4.0 μM) | – | 65 to 85 | < 55
O=C1CC2(CCN(C[C@H]3C[C@H]4C=C[C@H]3C4)CC2)c2ccccc21 [compound 104] | +++ (activity was measured to be less than or equal to 0.7 μM) | – | + (activity was measured to be greater than or equal to 4.0 μM) | – | 65 to 85 | < 55
CCOC(=O)N1CCC(N2CCC3(CC2)CN(C(C)=O)c2ccc(-c4ccncc4)cc23)CC1 [compound 105] | ++ (activity was measured to be between 0.7 μM and 3.0 μM) | – | + (activity was measured to be greater than or equal to 4.0 μM) | – | < 65 | < 55
COCCOC(=O)N1C2CCC1CC(N1CCC3(CC1)CN(C(=O)OC1CCC1)c1ccc(F)cc13)C2 (stereo not shown) [compound 106] | +++ (activity was measured to be less than or equal to 0.7 μM) | – | ++ (activity was measured to be between 0.1 μM and 4.0 μM) | – | 65 to 85 | < 55
CCOC(=O)N1CCC(CN2CCC3(CC2)COc2ccc(F)cc23)CC1 [compound 107] | +++ (activity was measured to be less than or equal to 0.7 μM) | – | + (activity was measured to be greater than or equal to 4.0 μM) | – | 65 to 85 | < 55
CC(C)OC(=O)N1C2CCC1CC(N1CCC3(CC1)CN(C(=O)N(C)C)c1ccc(F)cc13)C2 (stereo not shown) [compound 108] | +++ (activity was measured to be less than or equal to 0.7 μM) | – | ++ (activity was measured to be between 0.1 μM and 4.0 μM) | – | 65 to 85 | < 55
CCOC(=O)N1C2CCC1CC(N1CCC3(CC1)CNc1ccc(C)cc13)C2 (stereo not shown) [compound 109] | +++ (activity was measured to be less than or equal to 0.7 μM) | – | ++ (activity was measured to be between 0.1 μM and 4.0 μM) | – | 65 to 85 | < 55
c1ccc2c(c1)NCC21CCN(CC2CC3CCC2C3)CC1 (stereo not shown) [compound 110] | +++ (activity was measured to be less than or equal to 0.7 μM) | – | ++ (activity was measured to be between 0.1 μM and 4.0 μM) | – | < 65 | < 55
Fc1ccc2c(c1)C1(CCN(C3CCC4CCC3C4)CC1)CN2 (stereo not shown) [compound 111] | +++ (activity was measured to be less than or equal to 0.7 μM) | – | ++ (activity was measured to be between 0.1 μM and 4.0 μM) | – | 65 to 85 | < 55
O=C(O[C@@H]1CCOC1)N1CC2(CCN(C3CC4CCC(C3)N4C(=O)O[C@@H]3CCOC3)CC2)c2cc(F)ccc21 (stereo partly shown) [compound 112] | +++ (activity was measured to be less than or equal to 0.7 μM) | – | ++ (activity was measured to be between 0.1 μM and 4.0 μM) | – | 65 to 85 | < 55
CCOC(=O)N1CCC(N2CCC3(CC2)CN(C(C)=O)c2ccc(F)cc23)C1 (stereo not shown) [compound 113] | +++ (activity was measured to be less than or equal to 0.7 μM) | – | + (activity was measured to be greater than or equal to 4.0 μM) | – | 65 to 85 | < 55
CCCOC(=O)N1CC2(CCN(C3CCN(C(=O)OCC)CC3)CC2)c2cc(F)ccc21 [compound 114] | ++ (activity was measured to be between 0.7 μM and 3.0 μM) | – | + (activity was measured to be greater than or equal to 4.0 μM) | – | 65 to 85 | < 55
CCCOC(=O)N1C2CCC1CC(N1CCC3(CC1)CN(C(=O)O[C@@H]1CCOC1)c1ccc(F)cc13)C2 (stereo partly shown) [compound 115] | +++ (activity was measured to be less than or equal to 0.7 μM) | – | ++ (activity was measured to be between 0.1 μM and 4.0 μM) | – | 65 to 85 | < 55
Cc1ccc2c(c1)C1(CCN(C3CC4CCC3C4)CC1)CN2C(=O)OC(C)(C)C (stereo not shown) [compound 116] | +++ (activity was measured to be less than or equal to 0.7 μM) | – | ++ (activity was measured to be between 0.1 μM and 4.0 μM) | – | 65 to 85 | < 55
COCCOC(=O)N1CC2(CCN(C3CC4CCC(C3)N4C(=O)OCCOC)CC2)c2cc(F)ccc21 (stereo not shown) [compound 117] | +++ (activity was measured to be less than or equal to 0.7 μM) | – | ++ (activity was measured to be between 0.1 μM and 4.0 μM) | – | 65 to 85 | < 55
CC(=O)N1CC2(CCN(CC3CC4CCC3C4)CC2)c2cc(C)ccc21 (stereo not shown) [compound 118] | +++ (activity was measured to be less than or equal to 0.7 μM) | – | + (activity was measured to be greater than or equal to 4.0 μM) | – | 65 to 85 | < 55
COCCOC(=O)N1C2CCC1CC(N1CCC3(CC1)CN(C(=O)N(C)C)c1ccc(F)cc13)C2 (stereo not shown) [compound 119, 2-methoxyethyl 3-(1-(dimethylcarbamoyl)-5-fluorospiro[indoline-3,4′-piperidine]-1′-yl)-8-azabicyclo[3.2.1]octane-8-carboxylate] | +++ (activity was measured to be less than or equal to 0.7 μM) | – | + (activity was measured to be greater than or equal to 4.0 μM) | – | < 65 | < 55
CN(C)C(=O)N1CC2(CCN(C3CCN(C(=O)O[C@H]4CCOC4)CC3)CC2)c2cc(F)ccc21 [compound 120] | ++ (activity was measured to be between 0.7 μM and 3.0 μM) | – | + (activity was measured to be greater than or equal to 4.0 μM) | – | < 65 | < 55
CS(=O)(=O)N1CC2(CCN(C3CC4CCC(C3)N4C(=O)OC3CCC3)CC2)c2cc(F)ccc21 (stereo not shown) [compound 122] | +++ (activity was measured to be less than or equal to 0.7 μM) | – | ++ (activity was measured to be between 0.1 μM and 4.0 μM) | – | 65 to 85 | < 55
O=C(OC1CCC1)N1C2CCC1CC(N1CCC3(CC1)COc1ccc(F)cc13)C2 (stereo not shown) [compound 123] | ++ (activity was measured to be between 0.7 μM and 3.0 μM) | – | + (activity was measured to be greater than or equal to 4.0 μM) | – | < 65 | < 55
O=C(OCC(F)(F)F)N1C2CCC1CC(N1CCC3(CC1)COc1ccc(F)cc13)C2 (stereo not shown) [compound 124] | +++ (activity was measured to be less than or equal to 0.7 μM) | – | ++ (activity was measured to be between 0.1 μM and 4.0 μM) | – | < 65 | < 55
O=C(OC1CCC1)N1CC2(CCN(C3CC4CCC(C3)N4C(=O)O[C@H]3CCOC3)CC2)c2cc(F)ccc21 (stereo partly shown) [compound 125] | +++ (activity was measured to be less than or equal to 0.7 μM) | – | ++ (activity was measured to be between 0.1 μM and 4.0 μM) | – | 65 to 85 | < 55
CCOC(=O)N1CCC(N2CCC3(CC2)CN(C(C)=O)c2ccc(-c4ccccc4)cc23)CC1 [compound 126] | +++ (activity was measured to be less than or equal to 0.7 μM) | – | + (activity was measured to be greater than or equal to 4.0 μM) | – | < 65 | < 55

From US7858635B2 (priority 2005, dated 2010)
